Results taken from PMC4267740, “Unprecedented Therapeutic Potential with a Combination of A2A/NR2B Receptor Antagonists as Observed in the 6-OHDA Lesioned Rat Model of Parkinson's Disease” (PLoS ONE, 2014).
“Also recorded” adds a separate entry of the source.

What was measured:
[1] = tested on: unilateral 6-OHDA-lesioned rats; test: Rearing counts in actometers, monotherapy (without L-Dopa); type: in vivo, rat
Procedure: (§1) To protect norepinephrinergic neurons, animals were administered imipramine HCl (Sigma) 15 minutes before surgery. They were subsequently anesthetized with ketamine (Ceva, 75 mg/kg) and xylazine (Bayer, 10 mg/kg) and placed in stereotaxic frame (David Kopf Instrument). 6-OHDA was injected into the right ascending medial forebrain bundle at the following coordinates (in mm) relative to bregma and surface of the dura, AP = −3.5, ML = −1.5, DV = −8.7. Each rat received one injection of 6-OHDA (4 µg/µl) over a period of 5 minutes (0.5 µl/min) for a total of 10 µg per rat. Animals were monitored for 3 weeks to ensure full recovery and habituation to the environment and experimenters.
(§2) On day 21 post surgery, all rats were challenged with a small dose of subcutaneously administered apomorphine (Sigma, 0.05 mg/kg). Rats showing more than 90 contralateral rotations (360°) over a 45-minute recording period were included in the study. […] For each experiment, rats were allocated to the different experimental groups in order to get the same mean level of basal activity measured at the apomorphine challenge amongst the different experimental groups.
(§3) Drug-naïve separate rats were tested individually in clear acrylic chambers (LE8811 IR, Panlab). Locomotion was detected and measured by 16 infrared light-beam sensors located on each side of the enclosure at a height of 3 cm. Sensors were spaced such that the light beams formed a matrix of 15×15 squares over the surface. Activity counts were recorded on a computer and Acti-Track software (Actitrack, Panlab) was used to convert raw data into “distance traveled” and “rearing counts” for analysis as relevant dependent variables.
(§4) Six different combinations of A2A/NR2B antagonists were tested without L-Dopa. For each combination, there were four different procedures: vehicle only; A2A antagonist followed by vehicle; vehicle followed by the NR2B antagonist and A2A antagonist followed by the NR2B antagonist. The drugs, doses and combinations are described in Table 3. After drug administration, rats were placed in actometers (open-field) for monitoring the general level of motor activity (distance traveled and rearing counts).
(§5) Before undertaking the study, each A2A and NR2B antagonist was tested individually. The doses were selected on the basis of preliminary dose-response curves performed separately for each drug and submaximal dose (i.e. response observed is not at its maximal level) of each drug was selected for the combination studies. The two drugs were administered separately via an intraperitoneal (ip) injection with a 2-minute interval between the two drugs. Five minutes after the second injection, animals were placed in the testing cage for behavioural recording. Due to formulation and exposure issues, Tozadenant and Radiprodil had to be administered orally and therefore recording was started 60 minutes post dosing at this corresponds to maximum plasma concentrations. Eight drug-naïve animals were used for each of the four procedures; 32 in total for each combination. All behavioral experiments were conducted between 8.00 AM and 2.00 PM at the latest. Preliminary pharmacokinetic assays investigated the plasma and brain disposition of selected drugs administered alone or in combination (ie. Tozadenant/Radiprodil, and Sch-58261/Co-101244; 3 animals per group). Tozadenant and Radiprodil were measured in samples obtained 60 minutes after single oral administration at 30 mg/kg. Sch-58261 and Co-101244 were measured in samples collected 90 min after single intraperitoneal administration at 3 mg/kg.
(§6) The effects of A2A and NR2B antagonists on the level of motor activity (i.e. distance traveled and rearing counts) were assessed with three-way mixed ANOVA, combining the A2A receptor antagonist (2 levels, vehicle and the A2A drug) and the NR2B antagonist (2 levels, vehicle and the NR2B drug) as between-group factors with the time as within-subjects factor (6 or 9 levels). […]

A2B = biological target: A2B; set-up: method as in PMID 21810444, PMID 9933143, PMID 17236762; details: in vitro binding; rat or human; cited from earlier work
A1 = biological target: A1; set-up: method as in PMID 21810444, PMID 9933143, PMID 17236762; details: in vitro binding; rat or human; cited from earlier work
PD patients = details: cited from earlier work
A3 = biological target: A3; set-up: method as in PMID 21810444, PMID 9933143, PMID 17236762; details: in vitro binding; rat or human; cited from earlier work
A2A = biological target: A2A; set-up: method as in PMID 21810444, PMID 9933143, PMID 17236762; details: in vitro binding; rat or human; cited from earlier work
P-gp = tested on: P-gp; set-up: method as in PMID 18552277; details: human subjects; cited from earlier work
[2] = tested on: unilateral 6-OHDA-lesioned rats; test: Distance traveled in actometers, monotherapy (without L-Dopa); type: in vivo, rat
Procedure: as §1, §2, §3, §4, §5, §6

CYP3A = tested on: CYP3A; set-up: method as in PMID 18552277; details: human subjects; cited from earlier work
cytochrome P-450 (CYP) = tested on: cytochrome P-450 (CYP); set-up: method as in earlier work; details: ref 62 (Preladenant), 49 (Merck 22); cited from earlier work
P-glycoprotein (Pgp) = tested on: P-glycoprotein (Pgp); set-up: method as in earlier work; details: ref 62 (Preladenant), 49 (Merck 22); cited from earlier work
[3] = tested on: unilateral 6-OHDA-lesioned rats; test: L-Dopa-induced contralateral rotations in rotometers, add-on therapy; type: in vivo, rat; details: add-on to L-Dopa 25 mg/kg ip, Preladenant 0.03 mg/kg ip
Procedure: as §1, §2
The rats tested one week earlier for general activity (actometers) were once again placed in clear acrylic individual chambers (50×45 cm) with the same treatment (drug and dose) than that previously received plus L-Dopa. Eight chambers were placed on a level, clear glass bottom, held by a robust frame, and were subdivided into four individual test cages of 25×22 cm. A removable acrylic plate served as a lid.
Rotational behaviour was recorded using a home-made computerized system. Rats were fixed in a harness and linked to mechanical sensors connected directly to a computer. Each 360° clock-wise or counter clock-wise turn was automatically recorded for up to 120 minutes at the maximum. Throughout the experiments, rats were allocated to individual test cages.
Four different combinations were administered as add-on treatment to a low active dose of L-Dopa (25 mg/kg, ip) without any dopa decarboxylase inhibitor to avoid any additional pharmacokinetic interaction. The doses of the compounds were selected on the basis of preliminary dose-response curves performed separately for each drug. To avoid ceiling effect with L-Dopa, only submaximal doses of each drug were selected for testing (as it was done previously for monotherapy). Eight L-Dopa naïve animals were tested for each of the four pharmacological condition: vehicle and L-Dopa (25 mg/kg); A2A antagonist followed by vehicle and L-Dopa; vehicle followed by NR2B antagonist and L-Dopa; A2A antagonist followed by NR2B and L-Dopa. Due to the dominance of the L-Dopa-effect on the lesioned striatum, the unilateral 6-OHDA-lesioned rats rotated after the drugs administration and behavioral activity was recorded in rotometers (i.e. level of contralateral rotations).
All drugs were administered i.p. 25 minutes before behavioural recording, except for the Tozadenant and Radiprodil combination which was administered orally 60 minutes before behavioural recording. As Radiprodil was administered orally, L-Dopa was given 45 minutes after the Radiprodil injection whereas for the other combinations L-Dopa was given 15 minutes after the NR2B drug. The drugs, the doses and the combinations given in co-administration to L-Dopa are described in Table 4 .
The impact of treatment with A2A or NR2B receptor antagonists, given alone or in combination, on the effect of L-Dopa on contralateral rotations was also analysed with a three-way mixed ANOVA. The ANOVA included the A2A and the NR2B receptor antagonists (both, 2 levels, vehicle and the drug) as between-group factors combined with time (12 levels) as within-subjects factor. […] The ability of the combination to increase and prolong the activity of L-Dopa was also explored. Consequently, drug effects were analyzed for every 10-min time interval. […]

[4] = Istradefylline 0.3 mg/kg ip, Co-101244 1 mg/kg ip
[5] = Preladenant 0.1 mg/kg ip, Merck 22 0.3 mg/kg ip
[6] = Preladenant 0.1 mg/kg ip, Radiprodil 1 mg/kg ip

CCn1c(=O)c2c(nc(/C=C/c3ccc(OC)c(OC)c3)n2C)n(CC)c1=O [Istradefylline]
Rearing counts, drugs alone vs vehicle, p (Newman-Keuls) [1, 4]: Istradefylline, p<0.01
Rearing counts, drugs main effect, p (three-way mixed ANOVA) [1, 4]: p<0.001
Rearing counts, drugs × time effect, p (three-way mixed ANOVA) [1, 4]: p<0.01
Ki (A2B): > 10 µM
Ki (A1): 0.841 µM
Clinical efficacy when combined with L-Dopa (PD patients; PD patients): demonstrated significant efficacy
Clinical benefit as monotherapy (without L-Dopa) (PD patients; de-novo PD patients): did not produce statistically significant benefits
Ki (A3): 4.47 µM
Ki (A2A): 0.012 µM
Inhibition of P-gp (P-gp): modest inhibition
Distance traveled, drugs alone vs vehicle, p (Newman-Keuls) [2, 4]: not all drugs when administered alone improved distance traveled; also recorded: Not significant
Distance traveled, drugs main effect, p (three-way mixed ANOVA) [2, 4]: p<0.001
Distance traveled, drugs × time effect, p (three-way mixed ANOVA) [2, 4]: Not significant
Effect on CYP3A-mediated drug metabolism (CYP3A): does not impair

COCCOc1ccc(N2CCN(CCn3ncc4c3nc(N)n3nc(-c5ccco5)nc43)CC2)cc1 [Preladenant]
Rearing counts, drugs alone vs vehicle, p (Newman-Keuls) [1, 5]: Preladenant p<0.001
Rearing counts, drugs main effect, p (three-way mixed ANOVA) [1, 5]: p<0.001
Rearing counts, drugs × time effect, p (three-way mixed ANOVA) [1, 5]: p<0.001
Rearing counts, drugs alone vs vehicle, p (Newman-Keuls) [1, 6]: Preladenant p<0.001
Rearing counts, drugs main effect, p (three-way mixed ANOVA) [1, 6]: p<0.001
Rearing counts, drugs × time effect, p (three-way mixed ANOVA) [1, 6]: Not significant
Ki (A2B): > 1.7 µM
Ki (A1): > 1 µM
In-vitro drug interactions with cytochrome P-450 (CYP) (cytochrome P-450 (CYP)): devoid of in-vitro risks of drug interactions
Ki (A3): > 1 µM
Distance traveled, drugs alone vs vehicle, p (Newman-Keuls) [2, 5]: Preladenant: p<0.001
Distance traveled, drugs main effect, p (three-way mixed ANOVA) [2, 5]: p<0.001
Distance traveled, drugs × time effect, p (three-way mixed ANOVA) [2, 5]: Not significant
Distance traveled, drugs alone vs vehicle, p (Newman-Keuls) [2, 6]: Both p<0.05
Distance traveled, drugs main effect, p (three-way mixed ANOVA) [2, 6]: p<0.001
Distance traveled, drugs × time effect, p (three-way mixed ANOVA) [2, 6]: Not significant
Distance traveled, drug alone in comparison to vehicle-treated controls ([2]; drug administered alone): significant increase
In-vitro drug interactions with P-glycoprotein (Pgp) (P-glycoprotein (Pgp)): devoid of in-vitro risks of drug interactions
Contralateral rotations, drugs alone vs vehicle, p (planned contrasts on each 10-min interval) ([3]; Merck 22 1 mg/kg ip): Not significant
Contralateral rotations, drugs main effect, p (three-way mixed ANOVA) ([3]; Merck 22 1 mg/kg ip): p<0.05
Contralateral rotations, drugs × time effect, p (three-way mixed ANOVA) ([3]; Merck 22 1 mg/kg ip): p<0.001
Contralateral rotations, drugs alone vs vehicle, p (planned contrasts on each 10-min interval) ([3]; Radiprodil 0.3 mg/kg ip): Not significant
Contralateral rotations, drugs main effect, p (three-way mixed ANOVA) ([3]; Radiprodil 0.3 mg/kg ip): p<0.01
Contralateral rotations, drugs × time effect, p (three-way mixed ANOVA) ([3]; Radiprodil 0.3 mg/kg ip): p<0.001
